Values of other authors as cited in patent publication US20260199305A1, “LONG-ACTING ORAL PHARMACEUTICAL COMPRISING HYPOXIA-INDUCIBLE FACTOR PROLYL HYDROLASE INHIBITOR AND USE THEREOF” (Kind Pharmaceutical, priority 2023, published 2026).
Where two headings read alike, the source gives them in different places.

Conditions: cited from earlier work

Row | SMILES | t½ (literature value) [h] | other results
1 | O=C(O)CNC(=O)c1c(O)cc(CCc2ccccc2)n2ncnc12 [Enarodustat] | 8.2 to 8.7 | –
2 | Cn1c(=O)cc(N2CCC[C@@H](N)C2)n(Cc2cc(F)ccc2C#N)c1=O [Trelagliptin] | – | elimination half-life (t½) (literature value (J Diabetes Investig 2018)): 38.44 to 54.26 h
3 | O=C(O)CNC(=O)C1C(=O)N(C2CCCCC2)C(=O)N(C2CCCCC2)C1=O [Daprodustat] | – | t½ (in patients with chronic kidney disease anemia, literature): ~ 7 hours
4 | O=C(O)CNC(=O)c1ncc(-c2cccc(Cl)c2)cc1O [Vadadustat] | 4.7 to 9.1 | –
5 | O=c1c(-n2ccnn2)c[nH]n1-c1cc(N2CCOCC2)ncn1 [Molidustat] | 4 to 10 | –
6 | O=C(O)CNC(=O)c1c(O)c2ccccc2n(OCC2CC2)c1=O [Desidustat] | 6 to 15 | –
7 | Cc1nc(C(=O)NCC(=O)O)c(O)c2ccc(Oc3ccccc3)cc12 [Roxadustat] | 12 to 15 | –
